Our source for the MIC and IC50 values is ChEMBL document CHEMBL3352821, “Cyclic Hexapeptides from the Deep South China Sea-Derived Streptomyces scopuliridis SCSIO ZJ46 Active Against Pathogenic Gram-Positive Bacteria” (J Nat Prod, 2014).

One test relates to Klebsiella pneumoniae. The test can be described thus: Antimicrobial activity against Klebsiella pneumoniae ATCC 13883 by serial dilution/CLSI method. Type of test: functional.
The subject of another test is HepG2. The test can be described thus: Cytotoxicity against human HepG2 cells after 72 hrs by SRB assay. Type of test: functional, cell-based. The following applies: HepG2, 72 h. On the technique in general: Sulforhodamine B stains cellular protein and so reports cell mass.
Test [1] deals with Staphylococcus aureus. Kind of test: Antimicrobial activity against Staphylococcus aureus ATCC 29213 by serial dilution/CLSI method. Type of test: functional.
The test system of the next test is Streptococcus pneumoniae. Kind of test: Antimicrobial activity against Streptococcus pneumoniae NCTC 7466 by serial dilution/CLSI method. Type of test: functional.
The subject of the next test is SF-268. Kind of test: Cytotoxicity against human SF268 cells after 72 hrs by SRB assay. The following applies: SF-268, 72 h. Type of test: functional, cell-based.
In test [2] the test system is Staphylococcus epidermidis. Kind of test: Antimicrobial activity against methicillin-resistant Staphylococcus epidermidis shhs-E1 clinical isolate by serial dilution/CLSI method. Type of test: functional.
In a further test the test system is NCI-H460. The test can be described thus: Cytotoxicity against human NCI-H460 after 72 hrs by SRB assay. Type of test: functional, cell-based. Conditions: NCI-H460, 72 h.
Test [3] deals with Staphylococcus aureus. The test can be described thus: Antimicrobial activity against methicillin-resistant Staphylococcus aureus shhs-A1 clinical isolate by serial dilution/CLSI method. Type of test: functional.
For another test, the system named is MCF7. Kind of test: Cytotoxicity against human MCF7 cells after 72 hrs by SRB assay. Conditions: MCF7, 72 h. Type of test: functional, cell-based.

Converted amounts (≈) assume the structure as drawn. Non-standard residues stand in square brackets, D forms with d. Residues, ends and D or L forms follow the SMILES beside them. aIle = CC[C@@H](C)[C@H](N)C(=O)O

What is called MIC is the lowest concentration found to suppress growth. A higher MIC goes with a need for much substance. A word on the IC50: it is the concentration needed to halve the response being measured. Read a low IC50 as greater potency. For `CC(C)C[C@@H]1NC(=O)[C@H](Cc2c[nH]c3ccccc23)NC(=O)CNC(=O)[C@H](CC(N)=O)NC(=O)[C@H](C(C)C)NC(=O)[C@@H](CC(C)C)NC1=O`, the MIC against Klebsiella pneumoniae was greater than 128 µg/mL; against Staphylococcus aureus [1], 16 µg/mL (≈ 23.4 µM); against Streptococcus pneumoniae, 12.5 µg/mL (≈ 18.3 µM); in test [2], 32 µg/mL (≈ 46.9 µM); with Staphylococcus aureus [3], greater than 128 µg/mL. Besides, the 50% inhibitory concentration (IC50) with HepG2, with SF-268, in the test on NCI-H460 and with MCF7 was greater than 100 µM each time.
Consider `CC[C@@H](C)[C@@H]1NC(=O)[C@@H](CC(C)C)NC(=O)[C@H](CC(C)C)NC(=O)[C@H](CC(=O)c2ccccc2NC=O)NC(=O)CNC(=O)[C@H](CC(N)=O)NC1=O`, for which the MIC was greater than 128 µg/mL in the test on Klebsiella pneumoniae; greater than 128 µg/mL against Staphylococcus aureus [1]; greater than 100 µg/mL in the test on Streptococcus pneumoniae; greater than 128 µg/mL in [2]; greater than 128 µg/mL with Staphylococcus aureus [3]. For the same compound, the IC50 in the test on HepG2, in the test on SF-268, with NCI-H460 and in the test on MCF7 was greater than 100 µM in each case.
Consider `CC[C@@H](C)[C@@H]1NC(=O)[C@@H](CC(C)C)NC(=O)[C@H](CC(C)C)NC(=O)[C@H](CC(=O)c2ccccc2N)NC(=O)CNC(=O)[C@H](CC(N)=O)NC1=O`, for which the MIC is greater than 128 µg/mL against Klebsiella pneumoniae; greater than 128 µg/mL with Staphylococcus aureus [1]; greater than 100 µg/mL against Streptococcus pneumoniae; greater than 128 µg/mL in test [2]; greater than 128 µg/mL in the test on Staphylococcus aureus [3]. Moreover, the IC50 in the test on HepG2, with SF-268, in the test on NCI-H460 and with MCF7 was greater than 100 µM in each case.
Regarding `CC[C@@H](C)[C@@H]1NC(=O)[C@@H](CC(C)C)NC(=O)[C@H](CC(C)C)NC(=O)[C@H](Cc2c[nH]c3ccccc23)NC(=O)CNC(=O)[C@H](CC(N)=O)NC1=O` [DESOTAMIDE] (cyclo(GWL[dL][aIle]N)), the MIC against Klebsiella pneumoniae is greater than 128 µg/mL; with Staphylococcus aureus [1], 16 µg/mL (≈ 23 µM); in the test with Streptococcus pneumoniae, 12.5 µg/mL (≈ 17.9 µM); in test [2], 32 µg/mL (≈ 45.9 µM); in the test on Staphylococcus aureus [3], greater than 128 µg/mL. The IC50 in the test with HepG2, in the test with SF-268, in the test with NCI-H460 and with MCF7 was greater than 100 µM each time.
Take `CN[C@H](CC(C)C)C(=O)N[C@H]1C(=O)N[C@@H](CC(N)=O)C(=O)N[C@H]2C(=O)N[C@H]3C(=O)N[C@H](C(=O)N[C@H](C(=O)O)c4cc(O)cc(O)c4-c4cc3ccc4O)[C@H](O)c3ccc(c(Cl)c3)Oc3cc2cc(c3O[C@@H]2O[C@H](CO)[C@@H](O)[C@H](O)[C@H]2O[C@H]2C[C@](C)(N)[C@H](O)[C@H](C)O2)Oc2ccc(cc2Cl)[C@H]1O` [VANCOMYCIN]: the MIC is greater than 128 µg/mL with Klebsiella pneumoniae and 0.37 µg/mL (≈ 0.255 µM) in the test on Streptococcus pneumoniae.
